Literature values, collected in publication PMC3074188 (Journal of natural products, 2010).

Test system: HT-29 cell line

CC(C)C[C@H](NC(=O)[C@H](Cc1ccccc1)NC(=O)c1cnccn1)B(O)O [bortezomib]
sensitivity of HT-29 cell line (in words): sensitive
